Assay results taken from patent publication US7410971B2, “1,2-di(cyclic)substituted benzene compounds” (Eisai R&D Management Co., Ltd., priority 2003, dated 2008).

Experiments:
DSS-induced colitis = DSS-induced colitis model; format: in vivo, Balb/c mice; details: 30 mg/kg orally once a day for 5-7 successive days; 1-3% DSS in water for 5-7 days
Description: Evaluation of Compounds in DSS-Induced Colitis Model
A 1-3% solution of dextran sulfate sodium (hereinafter abbreviated as DSS; ICN) in purified water (Otsuka Pharmaceutical) was fed freely to 6- to 7-week-old male Balb/c mice (Charles River Japan) for 5-7 days to induce colitis. Disease Activity Index (hereinafter abbreviated as DAI) scored based on fecal hardness, blood content in feces and body weight change, the number of neutrophils infiltrating the colon and the length of the colon were used as indexes to evaluate compounds. Each compound was suspended or dissolved in an aqueous solution containing 0.5% methyl cellulose (Wako), and orally administered at 30 mg/kg once a day, for 5-7 successive days.

[1] = system: colon-infiltrating neutrophils (myeloperoxidase enzyme activity); assay: Oxazolone-induced colon neutrophil infiltration model; format: in vivo, Balb/c mice; details: Mus musculus, po, 30 mg/kg orally 30 minutes prior to intrarectal oxazolone, colon myeloperoxidase activity 4 hours after, vs oxazolone control group, read-out: Inhibitory rate (%)
Method: Evaluation of Compounds in Oxazolone-Induced Colon Neutrophil Infiltration Model
<Sensitization with Oxazolone>
Five- to six-week-old male Balb/c mice (Charles River Japan) were shaven at the abdomen to an approximately 2 cm square area. A 100% ethanol solution containing 3% 4-ethoxymethylene-2-phenyl-2-oxazolin-5-one (hereinafter referred to as “oxazolone”; Sigma) was applied at 150 μl onto the abdomen of each mouse.
<Preparation of Emulsion Containing Oxazolone>
Distilled water (Otsuka Pharmaceutical) was added in an equivalent volume to 100% peanut oil (Kanto Kagaku) containing 1% oxazolone, and the components were vigorously mixed with a glass syringe (Top Co.), to prepare an emulsion containing 0.5% oxazolone.
<Induction with Oxazolone>
The mice were fasted on the 3rd day after oxazolone sensitization, and were injected with 100 μl of the emulsion containing 0.5% oxazolone prepared in the way described above intrarectally at a site approximately 3 cm from the anus under ether anesthesia on the 4th day.
<Colon-Infiltrating Neutrophil Assay>
Each compound was suspended or dissolved in an aqueous solution containing 0.5% methyl cellulose (Wako), and orally administered at 30 mg/kg 30 minutes prior to the intrarectal injection of oxazolone emulsion. Four hours after the intrarectal injection of oxazolone, mice were sacrificed by cervical dislocation, and colons were extirpated, dissected in the longitudinal direction, washed with physiological saline, and transferred to ice-cooled plastic centrifugation tubes. After adding 1 ml of 50 mM potassium phosphate buffer (hereinafter abbreviated as KPB) (pH 6.0) to the tube, and the tissue were homogenized with PHYSCOTRON (Microtec Nition Co., Ltd.), 2 ml of 50 mM KPB (pH 6.0) was added and the mixture was centrifuged at 3000 rpm, 4° C. for 10 minutes and the supernatant was removed. To the resultant precipitate was added 1 ml of 50 mM KPB (pH 6.0) containing 0.5% hexadecyltrimethyl-ammonium bromide (Sigma), and freeze-thawed 3 to 5 times using liquid nitrogen and hot water, centrifuged at 3000 rpm, 4° C. for 10 minutes to yield a supernatant. The myeloperoxidase enzyme activity in the supernatant was assayed in the following manner. Specifically, to 10 μl of the obtained supernatant was added 200 μl of 50 mM KPB (pH6.0) containing 0.017% o-dianisidine (Sigma) and 0.0005% hydrogen peroxide (Wako), incubated at 37° C., and the change in absorbance at 450 nm was continuously measured for 1 minute using an EL340 Automated Microplate Reader (BIO-TEK) in kinetic mode. The units were the rate of change in absorbance per minute (mO.D./min.). With regard to the effect of each compound, the inhibitory rate (%) with respect to the oxazolone control group, i.e. the oxazolone-injected/compound-free group, was shown in the table 3.

Structure (SMILES) | improvement in comparison with the DSS control group (DAI, number of neutrophils infiltrating the colon, length of the colon) (DSS-induced colitis) | inhibition in vivo at 30 mg/kg [1]
CCCCN1CCN(c2cc(C#N)ccc2[C@H]2CC[C@H](C(C)(C)C)CC2)CC1.Cl [Example 13, trans-4-(4-t-Butylcyclohexyl)-3-(4-butylpiperazin-1-yl)benzonitrile hydrochloride] | particularly good improvement | 13%
CCCCN1CCN(c2cc(C#N)ccc2[C@H]2CC[C@@H](C(C)(C)C)CC2)CC1.Cl [Example 12, cis-4-(4-t-Butylcyclohexyl)-3-(4-butylpiperazine-1-yl)benzonitrile hydrochloride] | particularly good improvement | 34%
